Here are results for 23 compounds from patent publication US5464617A, “β-lactam compounds” (Hoffmann-La Roche Inc., priority 1994, dated 1995).

Converted amounts (≈) assume the structure as drawn. Structures can show the parent of a compound that is named as a salt.

The test system of the first assay is Citrobacter freundii 1982. As to the kind of experiment: MIC in vitro of a 1:4 combination of ceftriaxone with a compound of formula I (Test D). The note with it: Table 2; 1:4 combination of ceftriaxone with the compound. Type of assay: cell-based. As to the method:
The minimum inhibitory concentration in vitro ([…]) of a 1:4 combination of ceftriaxone with a compound of formula I against Citrobacter freundii 1982 was measured and compiled in Table 2 hereinafter.
Take `Cc1ccc(S(=O)(=O)OC2=C(C(=O)O)N3C(=O)[C@@H]4[C@H]3[C@H](C2)CN4C(=O)OC(C)(C)C)cc1` [10(d), (1aS,3aR,6bR)-2-t-Butoxycarbonyl-5-(4-methyl-phenylsulphonyloxy)-1-oxo-1a,2,3,3a,4,6b-hexahydro-1H-2,6a-diazacyclobut[cd]indene-6-carboxylic acid sodium salt]: the “MIC C. freundii 1982” value stood at 8 µg/mL.
On to `CC(C)(C)OC(=O)N1C[C@H]2CC(OS(C)(=O)=O)=C(C(=O)O)N3C(=O)[C@@H]1[C@@H]23` [10(a), (1aS,3aR,6bR)-2-t-Butoxycarbonyl-5-methylsulphonyloxy-1-oxo-1a,2,3,3a,4,6b-hexahydro-1H-2,6a-diazacyclobut[cd]-indene-6-carboxylic acid sodium salt], for which the “MIC C. freundii 1982” value was determined as 1 µg/mL.
On the same count and under the same terms, the result for `Cn1nnnc1SC1=C(C(=O)O)N2C(=O)[C@@H]3[C@H]2[C@H](C1)CN3C(=O)Nc1ccc(C(N)=O)cc1` [3(b), (1aS,3aR,6bR)-2-(4-Carbamoyl-phenylcarbamoyl)-5-(1-methyl-1H-tetrazol-5-ylsulphanyl)-1-oxo-1a,2,3,3a,4,6b-hexahydro-1H-2,6a-diazacyclobut[cd]indene-6-carboxylic acid sodium salt] reads 0.25 µg/mL; that for `NC(=O)c1ccc(NC(=O)N2C[C@H]3CC(Sc4nnc(N)s4)=C(C(=O)O)N4C(=O)[C@@H]2[C@@H]34)cc1` [3(m), (1aS,3aR,6bR)-5-(5-Amino1,3,4-thiadiazol-2-ylsulphanyl)-2-(4-carbamoyl-amino-phenylcarbamoyl)-1-oxo-1a,2,3,3a,4,6b-hexahydro-1H-2,6a-diazacyclobut]cd]indene-6-carboxylic acid sodium salt], 0.25 µg/mL.
On the same count and under the same terms, the result for `Cn1nnnc1SC1=C(C(=O)O)N2C(=O)[C@@H]3[C@H]2[C@H](C1)CN3C(=O)NC1CCSC1=O` (mixture of isomers) [3(f), (1aS,3aR,6bR)-5-(1-Methyl-1H-tetrazol-5-ylsulphanyl)-1-oxo-2-[(R)- and [(S)-2-oxo-tetrahydro-thien-3-ylcarbamoyl]-1a,2,3,3a,4,6b-hexahydro-1H-2,6a-diazacyclobut[cd]indene-6-carboxylic acid sodium salt] reads 0.06 µg/mL; that for `O=C([O-])C1=C(C[n+]2ccccc2)C[C@@H]2CN(C(=O)NCc3cc(O)no3)[C@@H]3C(=O)N1[C@H]23` [23(b), (1aS,3aR,6bR)-2-(3-Hydroxy-isoxazol-5-ylmethylcarbamoyl)-1-oxo-5-(pyridin-1-yliomethyl)-1a,2,3,3a,4,6b-hexahydro-1H-2,6a-diazacyclobut[cd]indene-6-carboxylate], 1 µg/mL; that for `NC(=O)c1ccc(NC(=O)N2C[C@H]3CC(C[n+]4ccccc4)=C(C(=O)[O-])N4C(=O)[C@@H]2[C@@H]34)cc1` [23(c), (1aS,3aR,6bR)-2-(4-Carbamoyl-phenylcarbamoyl)-1-oxo-5-(pyridin-1-yliomethyl)-1a,2,3,3a,4,6b-hexahydro-1H-2,6a-diazacyclobut[cd]indene-6-carboxylate], 0.25 µg/mL.
Same read-out and setting: the figure for `O=C(C[n+]1ccccc1)Nc1nnc(SC2=C(C(=O)[O-])N3C(=O)[C@@H]4[C@H]3[C@H](C2)CN4C(=O)Nc2ccc(O)cc2)s1` [Example 5, (1aS,3aR,6bR)-2-(4-Hydroxy-phenylcarbamoyl)-1-oxo-5-[5-(pyridin-1-ylioacetylamino)-1,3,4-thiadiazol-2-ylsulphanyl]-1a,2,3,3a,4,6b-hexahydro-1H-2,6a-diazacyclobut[cd]indene-6-carboxylic acid] is 2 µg/mL.
Consider `CS(=O)(=O)OC1=C(C(=O)O)N2C(=O)[C@@H]3[C@H]2[C@H](C1)CN3C(=O)N[C@H]1CCNC1=O` [9(e), (1aS,3aR,6bR)-5-Methylsulphonyloxy-1-oxo-2-[(S)-2-oxo-pyrrolidin-3-ylcarbamoyl]-1a,2,3,3a,4,6b-hexahydro-1H-2,6a-diazacyclobut[cd]indene-6-carboxylicacid sodium salt], for which the “MIC C. freundii 1982” value was found to be 0.25 µg/mL.
In the case of `Cn1nnnc1SC1=C(C(=O)O)N2C(=O)[C@@H]3[C@H]2[C@H](C1)CN3C(=O)N[C@H]1CCNC1=O` [3(c), (1aS,3aR,6bR)-2-[(S)-2-Oxo-pyrrolidin-3-ylcarbamoyl]-5-(1-methyl-1H-tetrazol-5-ylsulphanyl)-1-oxo-1a,2,3,3a,4,6b-hexahydro-1H-2,6a-diazacyclobut[cd]indene-6-carboxylic acid sodium salt], the “MIC C. freundii 1982” value turned out to be 0.25 µg/mL.
With `CC(=O)OCC1=C(C(=O)O)N2C(=O)[C@@H]3[C@H]2[C@H](C1)CN3C(=O)Nc1ccc(O)cc1` [Example 25, (1aS,3aR,6bR)-5-Acetoxymethyl-2-(4-hydroxy-phenylcarbamoyl)-1-oxo-1a,2,3,3a,4,6b-hexahydro-1H-2,6a-diazacyclobut[cd]indene-6-carboxylic acid sodium salt], the “MIC C. freundii 1982” value stood at 0.25 µg/mL.
In the case of `Cc1nnc(SC2=C(C(=O)O)N3C(=O)[C@@H]4[C@H]3[C@H](C2)CN4C(=O)Nc2ccc(C(N)=O)cc2)s1` [3(k), (1aS,3aR,6bR)-2-(4-Carbamoyl-phenylcarbamoyl)-5-(5-methyl-1,3,4-thiadiazol-2-ylsulphanyl)-1-oxo-1a,2,3,3a,4,6b-hexahydro-1H-2,6a-diazacyclobut[cd]indene-6-carboxylic acid sodium salt], the “MIC C. freundii 1982” value stood at 0.5 µg/mL.
With `COC(=O)CC1=C(C(=O)O)N2C(=O)[C@@H]3[C@H]2[C@H](C1)CN3C(=O)Nc1ccc(O)cc1` [13(b), (1aS,3aR,6bR)-2-(4-Hydroxy-phenylcarbamoyl)-5-methoxycarbonylmethyl-1-oxo-1a,2,3,3a,4,6b-hexahydro-1H-2,6a-diazacyclobut[cd]indene-6-carboxylic add sodium salt], the “MIC C. freundii 1982” value was 0.25 µg/mL.
Turning to `O=C([O-])C1=C(C[n+]2ccccc2)C[C@@H]2CN(C(=O)Nc3ccc(O)cc3)[C@@H]3C(=O)N1[C@H]23` [23(a)], the “MIC C. freundii 1982” value came out at 1 µg/mL.
The same measure, in the same setting: the result for `Cn1nnnc1SC1=C(C(=O)O)N2C(=O)[C@@H]3[C@H]2[C@H](C1)CN3C(=O)NC1CCS(=O)(=O)C1` (mixture of isomers) [3(i), (1aS,3aR,6bR)-2-[(R)- and [(S)-1,1-dioxo-tetrahydrothien-3-ylcarbamoyl)-5-(1-methyl-1H-tetrazol-5-ylsulphanyl)-1-oxo-1a,2,3,3a,4,6b-hexahydro-1H-2,6a-diazacyclobut[cd]indene-6-carboxylic acid sodium salt] reads 0.06 µg/mL; that for `C[n+]1ccc(SCC2=C(C(=O)[O-])N3C(=O)[C@@H]4[C@H]3[C@H](C2)CN4C(=O)Nc2ccc(C(N)=O)cc2)cc1` [Example 21, (1aS,3aR,6bR)-2-(4-Carbamoyl-phenylcarbamoyl)-5-(1-methylpyridin-1-yliosulphanylmethyl)-1-oxo-1a,2,3,3a,4,6b-hexahydro-1H-2,6a-diazacyclobut[cd]indene-6-carboxylate], 0.5 µg/mL.

The assay is the same for the next values; noted with them: Table 4; test D, 1:4 combination of ceftriaxone with the compound.
On to `Cn1nnnc1SCC1=C(C(=O)O)N2C(=O)[C@@H]3[C@H]2[C@H](C1)CN3S(=O)(=O)C(F)(F)F` [19(f), (1aS,3aR,6bR)-5-(1-Methyl-1H-tetrazol-5-ylsulphanylmethyl)-1-oxo-2-trifluormethylsulphonyl-1a,2,3,3a,4,6b-hexahydro-1H-2,6a-diazacyclobut[cd]indene-6-carboxylic acid sodium salt], for which the “MIC C. freundii 1982 (D)” value was 4 µg/mL.
In the case of `Cn1nnnc1SCC1=C(C(=O)O)N2C(=O)[C@@H]3[C@H]2[C@H](C1)CN3C(=O)NCc1cccs1` [18(g), (1aS,3aR,6bR)-1-Oxo-5-(1-methyl-1H-tetrazol-5-yl-sulphanylmethyl)-2-thiophen-2-ylmethylcarbamoyl-1a,2,3,3a,4,6b-hexahydro-1H-2,6a-diazacyclobut[cd]indene-6-carboxylic acid sodium salt], the “MIC C. freundii 1982 (D)” value is 0.5 µg/mL.
Still for that read-out and setting: the result for `COC(=O)CN1C[C@H]2CC(CSc3nnnn3C)=C(C(=O)O)N3C(=O)[C@@H]1[C@@H]23` [61(a), (1aS,3aR,6bR)-2-Methoxycarbonylmethyl-5-(1-methyl-1H-tetrazol-5-ylsulphanylmethyl)-1-oxo-1a,2,3,3a,4,6b-hexahydro-1H-2,6a-diazacyclobut[cd]indene-6-carboxylic acid] reads 0.25 µg/mL.

The next assay relates to E. coli 1346. As to the kind of experiment: Antibacterial activity of the products per se, serial dilution method in liquid medium (Test E). It is filed as cell-based. The settings on record: Table 3; product per se, liquid medium. The source says: The antibacterial activity of the products per se is illustrated on the basis of Table 3 hereinafter, the minimum inhibitory concentration […] in vitro against E. coli 1346 being determined using the serial dilution method in liquid medium: […]
On to `Cn1nnnc1SCC1=C(C(=O)O)N2C(=O)[C@H]3NC[C@@H](C1)[C@H]32` [Example 15, (1aS,3aR,6bR)-5-(1-Methyl-1H-tetrazol-5-ylsulphanylmethyl)-1-oxo-1a,2,3,3a,4,6b-hexahydro-1H-2,6a-diazacyclobut[cd]indene-6-carboxylic acid trifluoroacetate], for which the “MIC E. coli 1346” value worked out at 2 µg/mL.
Same read-out and setting: the result for `Cn1nnnc1SC1=C(C(=O)O)N2C(=O)[C@H]3NC[C@@H](C1)[C@H]32` [Example 2(a), (1aS,3aR,6bR)-5-(1-Methyl-1H-tetrazol-5-ylsulphanyl)-1-oxo-1a,2,3,3a,4,6b-hexahydro-1H-2,6a-diazacyclobut[cd]indene-6-carboxylic acid trifluoroacetate] reads 4 µg/mL; that for `CC(=O)N1C[C@H]2CC(CSc3nnnn3C)=C(C(=O)O)N3C(=O)[C@@H]1[C@@H]23` [Example 19(a), (1aS,3aR,6bR)-2-Acetyl-5-(1-methyl-1H-tetrazol-5-ylsulphahylmethyl)-1-oxo-1a,2,3,3a,4,6b-hexahydro-1H-2,6a-diazacyclobut[cd]indene-6-carboxylic acid sodium salt], 0.5 µg/mL; that for `CS(=O)(=O)OC1=C(C(=O)[O-])N2C(=O)[C@@H]3[C@H]2[C@H](C1)CN3C(=O)C[n+]1cccc(C(N)=O)c1` [11(a), (1 aS,3aR,6bR)-2-(3-Carbamoyl-pyridin-1-ylioacetyl)-5-methylsulphonyloxy-1-oxo-1a,2,3,3a,4,6b-hexahydro-1H-2,6a-diazacyclobut[cd]indene-6-carboxylate], 32 µg/mL (≈ 71 µM).
